The results in this text go back to PubChem BioAssay AID330 (DTP/NCI, 2004).

Each structure is given as a SMILES string. Several values for one entry are separate records, joined by “and”; a condition that tells them apart may be missing. Equal entries are not always repeated. Inconclusive results and toxic doses are left out.

This experiment relates to P388 leukemia ip, CD2F1 mice, survival T/C. Briefly: NCI In Vivo Anticancer Drug Screen. Data for tumor model P388 Leukemia (intraperitoneal) in CD2F1 (CDF1) mice. To be noted: endpoint: median survival time, higher = longer survival. In short, it runs like this:
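Mice carrying the transplanted tumor received test compound or vehicle. Survival was recorded in each group, and the value is the treated-group measurement divided by that of the vehicle-treated control group.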

[1] abbreviates: dose: 50.0 mg/kg/injection, schedule: Q01DX005 (ip), vehicle: saline with Tween-80.
The mark [2] stands for this setting: dose: 100.0 mg/kg/injection, schedule: Q01DX005 (ip), vehicle: saline with Tween-80.
[3] abbreviates: dose: 50.0 mg/kg/injection, schedule: Q01DX005 (ip), vehicle: Klucel (hydroxypropylcellulose) (HPC).
The mark [4] stands for this setting: dose: 100.0 mg/kg/injection, schedule: Q01DX005 (ip), vehicle: Klucel (hydroxypropylcellulose) (HPC).
The mark [5] stands for this setting: dose: 12.5 mg/kg/injection, schedule: Q01DX009 (ip), vehicle: saline.
The mark [6] stands for this setting: dose: 25.0 mg/kg/injection, schedule: Q01DX009 (ip), vehicle: saline.
Where [7] appears, read: dose: 100.0 mg/kg/injection, schedule: Q01DX009 (ip), vehicle: saline with Tween-80.
[8] abbreviates: dose: 100.0 mg/kg/injection, schedule: Q04DX003 (ip), vehicle: saline with Tween-80.
Where [9] appears, read: dose: 200.0 mg/kg/injection, schedule: Q04DX003 (ip), vehicle: saline with Tween-80.
[10] abbreviates: dose: 400.0 mg/kg/injection, schedule: Q04DX003 (ip), vehicle: saline with Tween-80.
[11] abbreviates: dose: 6.25 mg/kg/injection, schedule: Q01DX009 (ip), vehicle: saline with Tween-80.
Setting [12] is: dose: 12.5 mg/kg/injection, schedule: Q01DX009 (ip), vehicle: saline with Tween-80.
[13] abbreviates: dose: 60.0 mg/kg/injection, schedule: Q01DX005 (ip), vehicle: saline with Tween-80.
Setting [14] is: dose: 120.0 mg/kg/injection, schedule: Q01DX005 (ip), vehicle: saline with Tween-80.
Setting [15] is: dose: 50.0 mg/kg/injection, schedule: Q01DX009 (ip), vehicle: Klucel (hydroxypropylcellulose) (HPC).
The mark [16] stands for this setting: dose: 100.0 mg/kg/injection, schedule: Q01DX009 (ip), vehicle: Klucel (hydroxypropylcellulose) (HPC).
Where [17] appears, read: dose: 50.0 mg/kg/injection, schedule: Q01DX009 (ip), vehicle: saline.
[18] abbreviates: dose: 200.0 mg/kg/injection, schedule: Q01DX005 (ip), vehicle: Klucel (hydroxypropylcellulose) (HPC).

As to `CC[C@@]1(O)C(=O)OCc2c1cc1n(c2=O)Cc2cc3c(N)cccc3nc2-1`, the T/C runs as follows: (dose: 0.12 mg/kg/injection, schedule: Q01DX005 (ip), vehicle: saline with Tween-80) 153 % of control; (dose: 0.25 mg/kg/injection, schedule: Q01DX005 (ip), vehicle: saline with Tween-80) 153 % of control; (dose: 0.5 mg/kg/injection, schedule: Q01DX005 (ip), vehicle: saline with Tween-80) 180 % of control and 204 % of control; (dose: 1.0 mg/kg/injection, schedule: Q01DX005 (ip), vehicle: saline with Tween-80) 180 % of control.

Take `O=C1CC(=P(c2ccccc2)(c2ccccc2)c2ccccc2)C(=O)O1`: the T/C reads like this: (dose: 50.0 mg/kg/injection, schedule: Q04DX003 (ip), vehicle: saline) 102 % of control; (dose: 100.0 mg/kg/injection, schedule: Q04DX003 (ip), vehicle: saline) 100 % of control; (dose: 200.0 mg/kg/injection, schedule: Q04DX003 (ip), vehicle: saline) 109 % of control; (dose: 400.0 mg/kg/injection, schedule: Q04DX003 (ip), vehicle: saline) 106 % of control.

Consider `CCOC(=O)CNC(=O)NC(Cc1ccccc1)C(=O)OCC` (stereo not drawn), for which the T/C under setting [1] was 107 % of control and the T/C under setting [2] was 97 % of control.

With `Cc1cc(NCCN(C(C)C)C(C)C)nc(Nc2nc3cc(Cl)c(Cl)cc3[nH]2)n1`, the T/C (dose: 6.25 mg/kg/injection, schedule: Q01DX009 (ip), vehicle: saline sonified) was 100 % of control and the T/C (dose: 12.5 mg/kg/injection, schedule: Q01DX009 (ip), vehicle: saline sonified) is 100 % of control.

For `CCc1nc(N)nc(N)c1-c1ccc(N(C)C)c(N)c1`, the T/C by setting is: under setting [3], 100 % of control; under setting [4], 96 % of control.

`NCCNCC[OH2+].NCCNCC[OH2+].O=[N+]([O-])[O-].[Ni+2]`: the T/C was 93 % of control under setting [5] and 102 % of control under setting [6].

With `Cc1cnc(C#N)c(Cl)n1`, the T/C is, setting by setting: under setting [7], 100 % of control; under setting [8], 110 % of control; (dose: 200.0 mg/kg/injection, schedule: Q01DX009 (ip), vehicle: saline with Tween-80) 115 % of control; under setting [9], 110 % of control; under setting [10], 100 % of control.

For `N=C(N)c1ccc(SCCCCCSc2ccc(C(=N)N)cc2)cc1`, the T/C by setting is: (dose: 3.13 mg/kg/injection, schedule: Q01DX009 (ip), vehicle: saline with Tween-80) 117 % of control; under setting [11], 124 % of control; under setting [12], 119 % of control.

Regarding `COc1ccc2c(c1)OC(C)(C)[C@H](c1ccc(O)cc1)[C@@H]2c1ccccc1`, the T/C is 90 % of control under setting [13] and 90 % of control under setting [14].

For the molecule `COc1ccc(Cl)cc1C(=O)NCCc1ccc(CCC(=O)O)cc1`, the T/C reads like this: under setting [15], 99 % of control; under setting [16], 98 % of control; (dose: 200.0 mg/kg/injection, schedule: Q01DX009 (ip), vehicle: Klucel (hydroxypropylcellulose) (HPC)) 102 % of control.

For the molecule `CC1=C(C(=O)Nc2ccccc2C)C(c2cccc([N+](=O)[O-])c2)C(C(=O)Nc2ccccc2C)=C(C)N1`, the T/C is, setting by setting: (dose: 15.0 mg/kg/injection, schedule: Q01DX005 (ip), vehicle: Klucel (hydroxypropylcellulose) (HPC)) 102 % of control; (dose: 30.0 mg/kg/injection, schedule: Q01DX005 (ip), vehicle: Klucel (hydroxypropylcellulose) (HPC)) 93 % of control; (dose: 60.0 mg/kg/injection, schedule: Q01DX005 (ip), vehicle: Klucel (hydroxypropylcellulose) (HPC)) 88 % of control and 97 % of control.

As to `C(=C1SCCCS1)c1cc2c(cc1OCc1ccccc1)OCO2`, the T/C (dose: 100.0 mg/kg/injection, schedule: Q01DX001 (ip), vehicle: Klucel (hydroxypropylcellulose) (HPC)) is 100 % of control; the T/C (dose: 200.0 mg/kg/injection, schedule: Q01DX001 (ip), vehicle: Klucel (hydroxypropylcellulose) (HPC)) is 105 % of control; the T/C (dose: 400.0 mg/kg/injection, schedule: Q01DX001 (ip), vehicle: Klucel (hydroxypropylcellulose) (HPC)) is 102 % of control.

`Brc1ccc(C2=NOP(c3ccccc3)(c3ccccc3)(c3ccccc3)C2)cc1`: the T/C runs as follows: under setting [15], 99 % of control; under setting [16], 96 % of control.

`O=C(O)/C=C/c1c2ccc(=O)c(O)c-2oc2c(O)c(O)ccc12`: the T/C under setting [13] is 93 % of control; the T/C under setting [14] is 93 % of control; the T/C (dose: 240.0 mg/kg/injection, schedule: Q01DX005 (ip), vehicle: saline with Tween-80) is 92 % of control.

As for `Cc1cc(C)n(-c2ccncc2[N+](=O)[O-])n1`, the T/C runs as follows: under setting [17], 101 % of control; (dose: 100.0 mg/kg/injection, schedule: Q01DX009 (ip), vehicle: saline) 97 % of control; (dose: 200.0 mg/kg/injection, schedule: Q01DX009 (ip), vehicle: saline) 105 % of control.

Regarding `ClC(Cl)c1nc2ccccc2[nH]1`, the T/C (dose: 6.25 mg/kg/injection, schedule: Q01DX009 (ip), vehicle: saline) was 108 % of control; the T/C under setting [5] is 100 % of control; the T/C under setting [6] is 108 % of control; the T/C under setting [17] is 101 % of control.

For the molecule `N#Cc1c(-c2ccc(Cl)cc2)c(-c2ccc(Cl)cc2)n[nH]c1=O`, the T/C reads like this: under setting [3], 100 % of control; under setting [4], 99 % of control; under setting [18], 104 % of control.

With `C=CCOc1ccccc1C(=O)NC(O)(C(F)(F)F)C(F)(F)F`, the T/C is, setting by setting: (dose: 50.0 mg/kg/injection, schedule: Q04DX002 (ip), vehicle: suspension in saline) 100 % of control; (dose: 100.0 mg/kg/injection, schedule: Q04DX002 (ip), vehicle: suspension in saline) 104 % of control; (dose: 200.0 mg/kg/injection, schedule: Q04DX002 (ip), vehicle: suspension in saline) 98 % of control.

Regarding `CC1(C)CCC2(C)N(c3ccccc3)C(=O)ON12` (stereo not drawn), the T/C runs as follows: under setting [1], 102 % of control; under setting [2], 100 % of control; (dose: 200.0 mg/kg/injection, schedule: Q01DX005 (ip), vehicle: saline with Tween-80) 99 % of control.

In the case of `O=S(/N=C/c1ccccc1)c1ccc(Cl)cc1` (stereo not drawn), the T/C is, setting by setting: (dose: 50.0 mg/kg/injection, schedule: Q01DX009 (ip), vehicle: saline with Tween-80) 96 % of control; under setting [7], 89 % of control.

For the molecule `O=c1c2ccccc2c(=O)c2c1ccc1[nH]c3ccccc3n(-c3ccccc3)c12`, the T/C runs as follows: under setting [3], 101 % of control; under setting [4], 100 % of control; under setting [18], 100 % of control.

As to `CC1=C(/C=C/C(C)=C/C=C/C(C)=C/C(=O)O)C(C)(C)CCC1`, the T/C is, setting by setting: (dose: 32.0 mg/kg/injection, schedule: Q01DX005 (ip), vehicle: saline with Tween-80) 119 % of control; (dose: 64.0 mg/kg/injection, schedule: Q01DX005 (ip), vehicle: saline with Tween-80) 111 % of control; under setting [8], 105 % of control; (dose: 128.0 mg/kg/injection, schedule: Q01DX005 (ip), vehicle: saline with Tween-80) 103 % of control; under setting [9], 115 % of control.

On to `COC(=O)C12CC3CC(CC(NC(=O)C(Cc4ccccc4)NC(=O)CN)(C3)C1)C2` (stereo not drawn), for which the T/C is 94 % of control (dose: 60.0 mg/kg/injection, schedule: Q01DX005 (ip), vehicle: saline); 99 % of control (dose: 120.0 mg/kg/injection, schedule: Q01DX005 (ip), vehicle: saline); 94 % of control (dose: 240.0 mg/kg/injection, schedule: Q01DX005 (ip), vehicle: saline).

Turning to `CCCCC(NC(=O)CNC(=O)OCc1ccccc1)C(=O)O` (stereo not drawn), the T/C by setting is: under setting [3], 90 % of control; under setting [4], 104 % of control; under setting [18], 95 % of control.

As to `NNc1nncn2c1cc1ccccc12`, the T/C reads like this: under setting [11], 98 % of control; under setting [12], 95 % of control; (dose: 25.0 mg/kg/injection, schedule: Q01DX009 (ip), vehicle: saline with Tween-80) 92 % of control.

For the molecule `FC(F)(F)c1nc(Cc2ccccc2)c(C(F)(F)F)o1`, the T/C is 93 % of control under setting [8], 93 % of control under setting [9] and 95 % of control under setting [10].
